In series [1] the test system is HepG2 human hepatoma cells.
Series [2] deals with UGT2B7. Particulars: cited from earlier work.
Series [3] concerns opioid receptors. Particulars: ref Brown et al., 1985, Frölich et al., 2011, Zuckerman et al., 1999; cited from earlier work.
The conditions of series [4]: ref Brown et al., 1985, Frölich et al., 2011, Zuckerman et al., 1999; cited from earlier work.
The test system of series [5] is opioid receptors. Particulars: ref Brown et al., 1985, Frölich et al., 2011, Zuckerman et al., 1999; cited from earlier work. This is another data set of the same source.
For series [6] the following is noted: human, rabbit, and rat; ref Frölich et al., 2011, Smith et al., 1973, Skarke and Lötsch, 2002; cited from earlier work.
Series [7] deals with human SULT1A1 (Homo sapiens, UniProt P50225). Particulars: pH 7.5.
Sequence of human SULT1A1 (P50225 whole entry): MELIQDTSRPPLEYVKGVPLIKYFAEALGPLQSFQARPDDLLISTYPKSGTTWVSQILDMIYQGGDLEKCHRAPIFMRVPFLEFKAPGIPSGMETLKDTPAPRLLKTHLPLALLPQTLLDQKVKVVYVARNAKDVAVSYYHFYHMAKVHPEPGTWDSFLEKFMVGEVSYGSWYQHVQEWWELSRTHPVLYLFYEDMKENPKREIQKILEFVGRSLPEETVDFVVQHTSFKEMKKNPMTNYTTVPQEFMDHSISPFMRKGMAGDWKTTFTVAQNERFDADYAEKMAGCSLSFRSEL
The target of series [8] is human SULT1A2 (Homo sapiens, UniProt P50226). Particulars: pH 7.5.
Sequence of human SULT1A2 (P50226 whole entry): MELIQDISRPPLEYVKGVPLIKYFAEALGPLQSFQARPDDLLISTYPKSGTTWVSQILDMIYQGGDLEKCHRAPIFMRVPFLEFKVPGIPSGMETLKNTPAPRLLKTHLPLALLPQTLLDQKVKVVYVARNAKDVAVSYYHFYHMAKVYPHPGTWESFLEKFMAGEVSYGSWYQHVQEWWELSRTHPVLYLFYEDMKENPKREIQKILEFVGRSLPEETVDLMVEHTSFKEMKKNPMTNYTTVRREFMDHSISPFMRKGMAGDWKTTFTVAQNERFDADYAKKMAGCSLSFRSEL
For series [9] the following is noted: morphine metabolites in human; ref Frölich et al., 2011, Skarke and Lötsch, 2002; cited from earlier work.
Substrate in series [10]: Oc1ccc2c(c1)[C@@]13CCCC[C@@]1(O)[C@@H](C2)N(CC1CCC1)CC3
Description: not read. Particulars: other: Michaelis-Menten, pH 7.5.

Substrate in series [11]: CN1CC[C@]23CCCC[C@H]2[C@H]1Cc1ccc(O)cc13
Format: in vitro ADME, human. Conditions: other: Michaelis-Menten, pH 7.5.

The text below walks through data of paper PMC4459640 (European journal of pharmaceutical sciences : official …, 2014).

One may read the Km as the substrate concentration at which the rate is half of its maximum. A word on the Vmax: it is the top rate of the reaction or transport when substrate is in excess.

With `Oc1ccc2c(c1)[C@@]13CCCC[C@@]1(O)[C@@H](C2)N(CC1CCC1)CC3` [Butorphanol, butorphanol], in series [1], the “Efficiency of sulfation by HepG2 cells relative to the other three opioid drugs” value is on record as “more efficiently”.

On to `CN1CC[C@]23c4c5ccc(O)c4O[C@H]2C(=O)CC[C@@]3(O)[C@H]1C5` [Oxymorphone, oxymorphone], for which the Km in series [2] is 540 to 1360 µM. Moreover, the “Efficiency of sulfation by HepG2 cells relative to the other three opioid drugs” value in series [1] was “more efficiently”.

Turning to `CN1CC[C@]23c4c5ccc(O)c4O[C@H]2[C@@H](OS(=O)(=O)O)C=C[C@H]3[C@H]1C5` [morphine-6-sulfate], the “Capability to activate the opioid receptors (ligand activity)” value in series [3] is “comparable to those of morphine”. The “Analgesic effect compared with morphine” value in [4] is recorded as “greater analgesic effect than does morphine”. Further, in [5], the “Affinity toward opioid receptors” value is given as “comparable to those of morphine”.

Regarding `CN1CC[C@]23c4c5ccc(OS(=O)(=O)O)c4O[C@H]2[C@@H](O)C=C[C@H]3[C@H]1C5` [morphine-3-sulfate, morphine-3-O-sulfate], the “Sulfate metabolite as share of the metabolites from urine” value in series [6] is on record as ~ 2%. Further, in [3], the “Capability to activate the opioid receptors (ligand activity)” value is “low capability to activate the receptors”. The “Affinity toward opioid receptors” value in series [5] was “low affinity”.

On to `Oc1ccc2c3c1O[C@H]1[C@H](O)CC[C@@]4(O)[C@@H](C2)N(CC2CC2)CC[C@]314` [6βNaltrexol, 6β-naltrexol], for which the “Specific activity, SULT1A1” value in series [7] was found to be 0.21 ± 0.03 nmol/min/mg. Also, the “Specific activity, SULT1A2” value in series [8] stood at 0.08 ± 0.01 nmol/min/mg.

Regarding `C=CCN1CC[C@]23c4c5ccc(O)c4O[C@H]2[C@@H](O)C=C[C@H]3[C@H]1C5` [Nalorphine, nalorphine], the “Efficiency of sulfation by HepG2 cells relative to the other three opioid drugs” value in [1] is reported as “more efficiently”.

With `CN1CC[C@]23c4c5ccc(O)c4O[C@H]2[C@@H](O[C@@H]2O[C@H](C(=O)O)[C@@H](O)[C@H](O)[C@H]2O)C=C[C@H]3[C@H]1C5` [morphine-glucuronide], the Share of metabolite in series [9] is reported as 60–70 % of metabolite.

B1: human SULT2A1 (Homo sapiens) (protein)
chain: MSDDFLWFEGIAFPTMGFRSETLRKVRDEFVIRDEDVIILTYPKSGTNWLAEILCLMHSKGDAKWIQSVPIWERSPWVESEIGYTALSETESPRLFSSHLPIQLFPKSFFSSKAKVIYLMRNPRDVLVSGYFFWKNMKFIKKPKSWEEYFEWFCQGTVLYGSWFDHIHGWMPMREEKNFLLLSYEELKQDTGRTIEKICQFLGKTLEPEELNLILKNSSFQSMKENKMSNYSLLSVDYVVDKAQLLRKGVSGDWKNHFTVAQAEDFDKLFQEKMADLPRELFPWE
On to B1, for which the Km in series [10] came out at 38.95 ± 1.21 µM; in series [11], 599.0 ± 60.7 µM. Also, the Vmax stood at 0.00104 µmol/min/mg in series [10] and 0.00032 µmol/min/mg in series [11].
